Measured values taken from patent US20100144708A1, “HETEROCYCLIC COMPOUNDS CONTAINING NITROGEN ATOMS OR PHARMACEUTICALLY ACCEPTABLE SALTS THEREOF, PROCESS FOR THE PREPARATION THEREOF AND PHARMACEUTICAL COMPOSITION COMPRISING THE SAME FOR TREATMENT OF CANCER” (Korea Research Instititute of Bioscience and Biotechnology, priority 2006, published 2010).

How the values were obtained:
Assay type in all cases: cell-based, Human
PC-3 (prostate cancer) = assay: Test for inhibition of tumor cell growth (SRB), PC-3; conditions: 48 hours, SRB staining; for GI50: Homo sapiens, read-out: GI50 PC-3 (prostate ancer)
Procedure: (§1) Human tumor cell lines, PC-3 (prostate cancer, ATCC, USA), MBA-MB-231 (breast cancer, ATCC, USA), ACHN (kidney cancer, ATCC, USA), and NUGC-3 (gastric cancer, ATCC, USA) were cultured in RPMI 1640 media containing 10% fetal bovine serum (FBS).
(§2) In order to measure anticancer activity, a suitable concentration of cells in RPMI 1640 media containing 5% fetal bovine serum (about 5×10^4 cells/□) was aliquotted in 96-well plates, and cultured in 5% CO2 at 37° C. On day one after aliquoting the cells, before the cells were treated with the compounds, in order to determine their concentration, 50[…] of 50% trichloroacetic acid was added to each well of time zero (T0) plate, and cells were fixed to determine zero point. The cells treated with the compounds were fixed on each well having 50[…] of 50% trichloroacetic acid after 48 hours. The final concentrations of the test compounds were 0.01, 0.03, 0.1, 0.3, and 1[…]/□. The fixed plate was washed with water and dried, and then 100[…] of 0.4% sulphorhodamine B (SRB) dissolved in 0.1% acetic acid was added to the each well to stain the cells. The plate was allowed to stand for 30 minutes, and then washed with 0.1% acetic acid. Then, the plate was dried at room temperature, and treated with 10 mM tris base (pH 10.5) to dissolve staining reagent. An absorbance measured at 540 nm was calculated as a percentage of the control group, and then the concentration of the compound that inhibited tumor cell growth (GI50(□/□)) by 50% was determined.

[1] = tested on: MBA-MB-231 (breast cancer); assay: Test for inhibition of tumor cell growth (SRB), MBA-MB-231; conditions: 48 hours, SRB staining; for GI50: Homo sapiens
Procedure: as §1, §2

ACHN (kidney cancer) = assay: Test for inhibition of tumor cell growth (SRB), ACHN; conditions: 48 hours, SRB staining; for GI50: Homo sapiens, ACHN
Procedure: as §1, §2

NUGC-3 (gastric cancer) = assay: Test for inhibition of tumor cell growth (SRB), NUGC-3; conditions: 48 hours, SRB staining; for GI50: Homo sapiens, NUGC-3
Procedure: as §1, §2

Compound	GI50 (PC-3 (prostate cancer)) [µg/mL]	GI50 [1] [µg/mL]	GI50 (ACHN (kidney cancer)) [µg/mL]	GI50 (NUGC-3 (gastric cancer)) [µg/mL]	GI50 PC-3 (prostate ancer) (PC-3 (prostate cancer)) [µg/mL]	GI50 MBA-MB-231 (breast cancer) [1] [µg/mL]	GI50 ACHN (kidney cancer) (ACHN (kidney cancer)) [µg/mL]	GI50 NUGC-3 (gastric cancer) (NUGC-3 (gastric cancer)) [µg/mL]
1-(4-fluorobenzyl)-1-methyl-4-(octane-1-sulfonyppiperazin-1-ium bromide [Example 63]					>10	>10	>10	>10
1-allyl-1-methyl-4-(tetradecane-1-sulfonyppiperazin-1-ium bromide [Example 69]					0.68	1.16	0.59	0.59
1-ethyl-1-(3-nitrobenzyl)-4-tetradecanoylpiperazin-1-him bromide [Example 56]					0.52	1.13	1.93	1.22
CCCCCCCC(=O)N1CC[N+](C)(Cc2ccc(OC)cc2)CC1.[Cl-] [Example 5, 1-(4-methoxy-benzyl)-1-methyl-4-octanoyl-piperazin-1-ium chloride]	> 10	> 10	> 10	> 10				
CCCCCCCCCC(=O)N1CC[N+](C)(Cc2ccccc2)CC1 [Example 8, 1-benzyl-4-decanoyl-1-methyl-piperazin-1-ium bromide]	0.8	> 10	> 10	> 10				
C=CC[N+]1(C)CCN(C(=O)CCCCCCCCC)CC1 [Example 9, 1-allyl-4-decanoyl-1-methyl-piperazin-1-ium bromide]	1.81	> 10	> 10	> 10				
CCCCCCCCCC(=O)N1CC[N+](CC)(Cc2ccccc2)CC1 [Example 10, 1-benzyl-4-decanoyl-1-ethyl-piperazin-1-ium bromide]	> 10	> 10	> 10	> 10				
C=CC[N+]1(CC)CCN(C(=O)CCCCCCCCC)CC1 [Example 11, 1-allyl-4-decanoyl-1-ethylpiperazin-1-ium bromide]	3.07	> 10	> 10	> 10				

Further lines, with some results ahead:

GI50 (PC-3 (prostate cancer)) [µg/mL]	GI50 [1] [µg/mL]	GI50 (ACHN (kidney cancer)) [µg/mL]	GI50 (NUGC-3 (gastric cancer)) [µg/mL]	Compound	GI50 PC-3 (prostate ancer) (PC-3 (prostate cancer)) [µg/mL]	GI50 MBA-MB-231 (breast cancer) [1] [µg/mL]	GI50 ACHN (kidney cancer) (ACHN (kidney cancer)) [µg/mL]	GI50 NUGC-3 (gastric cancer) (NUGC-3 (gastric cancer)) [µg/mL]
0.99	3.51	2.39	1.15	CCCCCCCCCCCCCCCCCCCCCC(=O)N1CC[N+](C)(C)CC1 [Example 1, 4-docosanoyl-1,1-dimethylpiperazin-1-ium iodide]				
> 10	> 10	> 10	> 10	CCCCCCCC(=O)N1CC[N+](C)(C)CC1.[I-] [Example 2, 1,1-dimethyl-4-octanoyl-piperazin-1-ium iodide]				
> 10	> 10	> 10	> 10	CCCCCCCC(=O)N1CC[N+](C)(Cc2ccccc2)CC1.[Br-] [Example 3, 1-benzyl-1-methyl-4-octanoyl-piperazin-1-ium bromide]				
> 10	> 10	> 10	> 10	C=CC[N+]1(C)CCN(C(=O)CCCCCCC)CC1.[Br-] [Example 4, 1-allyl-1-methyl-4-octanoyl-piperazin-1-ium bromide]				
> 10	> 10	> 10	> 10	CCCCCCCC(=O)N1CC[N+](C)(CC)CC1.[I-] [Example 6, 1-ethyl-1-methyl-4-octanoyl-piperazin-1-ium iodide]				
> 10	> 10	> 10	> 10	CCCCCCCC(=O)N1CC[N+](CC)(Cc2ccccc2)CC1.[Br-] [Example 7, 1-benzyl-1-ethyl-4-octanoyl-piperazin-1-ium bromide]				
> 10	> 10	> 10	> 10	CCCCCCCCCC(=O)N1CC[N+](C)(CC)CC1 [Example 12, 4-decanoyl-1-ethyl-1-methylpiperazin-1-ium iodide]				
